# Data from US9301951B2 (Ardelyx, Inc., priority 2010, dated 2016).
# System: NaPi2b
# Test: Competition with phosphate: Pi uptake assay repeated at 2.1 vs 0.1 mM phosphate
# Type: cell-based
# Settings: potency at 2.1 vs 0.1 mM phosphate
# Source text: In certain preferred embodiments, the phosphate transport inhibitors of the present invention are not competitive inhibitors with respect to phosphate of Na/phosphate co-transport. In certain other preferred embodiments, the phosphate transport inhibitors of the invention are non-competitive inhibitors. Non-competitive inhibitors maintain their degree of inhibition irrespective of the local phosphate concentration. This feature is an important aspect in providing an efficient blockade of intestinal transport in postprandial state, where the local concentration of dietary phosphate can attain concentration as high as 10 mM. It is believed that competitive inhibitors are too sensitive to local phosphate concentration and unable to block phosphate uptake following a high phosphorus meal. Various methods are available for determining whether a phosphate transport inhibitor is non-competitive or competitive. For example, a phosphate uptake assay can be performed and the IC50 values for a compound at different phosphate concentrations can be determined (e.g., “Enzyme kinetics”, I. Segel, 1975, John-Wiley & Sons, p. 123). IC50 values for non-competitive inhibitors will remain the same or similar with respect to the phosphate concentration, whereas IC50 values for competitive inhibitors will increase (i.e. lose potency) as phosphate concentration increases. […]
structure (smiles),measurement,value
"O=C(O)CCSCc1cccc(C(=O)Nc2ccc(N3CCCCC3)cc2-c2cc(C(=O)NCc3cccc(C(F)(F)F)c3)ccn2)c1 [Example 1.1, 3-(3-((2-(4-((3-(trifluoromethyl)benzyl)carbamoyl)pyridin-2-yl)-4-(piperidin-1-yl)phenyl)carbamoyl)-benzylthio)propanoic acid]",Competitive with respect to Pi?,No
